In patent US20260062422A1 (Halda Therapeutics OpCo, Inc., priority 2022, published 2026):

Molecular target: T1, androgen receptor (Homo sapiens, UniProt P10275)
T1 sequence (P10275 1-920 T878A): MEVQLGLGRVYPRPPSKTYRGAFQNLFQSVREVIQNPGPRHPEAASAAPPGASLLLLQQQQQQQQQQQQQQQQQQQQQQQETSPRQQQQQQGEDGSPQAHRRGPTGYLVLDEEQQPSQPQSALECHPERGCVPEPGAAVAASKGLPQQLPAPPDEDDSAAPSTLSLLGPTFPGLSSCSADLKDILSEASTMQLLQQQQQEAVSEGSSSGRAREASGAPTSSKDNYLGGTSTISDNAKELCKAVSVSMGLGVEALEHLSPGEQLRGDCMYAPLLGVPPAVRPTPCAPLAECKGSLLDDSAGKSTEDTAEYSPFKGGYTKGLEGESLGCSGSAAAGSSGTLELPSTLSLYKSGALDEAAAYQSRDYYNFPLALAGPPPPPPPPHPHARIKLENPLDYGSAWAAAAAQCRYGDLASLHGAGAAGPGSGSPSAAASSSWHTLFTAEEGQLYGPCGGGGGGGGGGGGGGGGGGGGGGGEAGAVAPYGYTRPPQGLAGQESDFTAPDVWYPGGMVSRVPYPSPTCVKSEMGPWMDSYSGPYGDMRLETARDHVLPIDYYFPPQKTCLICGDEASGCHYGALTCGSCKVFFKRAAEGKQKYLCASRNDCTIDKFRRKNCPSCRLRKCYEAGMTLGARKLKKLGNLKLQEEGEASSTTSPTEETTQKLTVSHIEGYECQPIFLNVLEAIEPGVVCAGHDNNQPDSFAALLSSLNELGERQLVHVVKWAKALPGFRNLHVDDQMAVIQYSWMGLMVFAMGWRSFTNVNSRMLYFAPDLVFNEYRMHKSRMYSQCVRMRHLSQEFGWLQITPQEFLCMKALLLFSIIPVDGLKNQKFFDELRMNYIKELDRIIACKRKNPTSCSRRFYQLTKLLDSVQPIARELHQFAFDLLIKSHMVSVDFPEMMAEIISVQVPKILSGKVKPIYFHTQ
Experiment: Assay for binding affinity to androgen receptor ([3H]methyltrienolone radioligand, cell cytosol)
Settings: 1 nM [3H]methyltrienolone, 24 hours at 4° C., Table 5
Procedure: Fractions of cell cytosol ([…] cell/point) were incubated for 24 hours at 4° C. with 1 nM [^3H]methyltrienolone in the absence or presence of the test compound in a buffer containing 25 mM Hepes-Tris (pH 7.4), 1 mM EDTA, 10 mM Na2MoO4, 2 mM DTT, 5 μM triamcinolone acetonide, and 10% glycerol. Nonspecific binding was determined in the presence of 1 μM testosterone. Following incubation, the samples were filtered rapidly under vacuum through glass fiber filters (GF/B, Packard) presoaked with 0.3% PEI and rinsed several times with ice-cold 50 mM Tris-HCl using a 96-sample cell harvester (Unifilter, Packard). The filters were dried then counted for radioactivity in a scintillation counter (Topcount, Packard) using a scintillation cocktail (Microscint 0, Packard). The results are expressed as a percent inhibition of the control radioligand specific binding. The standard reference compound is testosterone, which is tested in each experiment at several concentrations to obtain a competition curve from which its IC50 is calculated.

| SMILES | Kd [µM] |
| --- | --- |
| Cc1sc2c(c1C)C(c1ccc(Cl)cc1)=N[C@@H](CC(=O)NCCN(C)c1ncc(C(=O)N[C@H]3C(C)(C)[C@H](Oc4ccc(C#N)c(Cl)c4)C3(C)C)cn1)c1nnc(C)n1-2 [Compound I-1, N-[3-(3-chloro-4-cyano-phenoxy)-2,2,4,4-tetramethyl-cyclobutyl]-2-[2-[[2-[(9S)-7-(4-chlorophenyl)-4,5,13-trimethyl-3-thia-1,8,11,12-tetrazatricyclo[8.3.0.02,6]trideca-2(6),4,7,10,12-pentaen-9-yl]acetyl]amino]ethyl-methyl-amino]pyrimidine-5-carboxamide] | < 0.05 |
| Cc1sc2c(c1C)C(c1ccc(Cl)cc1)=N[C@@H](CC(=O)NCCCN1CCN(CCCN(C)c3ncc(C(=O)N[C@H]4C(C)(C)[C@H](Oc5ccc(C#N)c(Cl)c5)C4(C)C)cn3)CC1)c1nnc(C)n1-2 [Compound I-5, N-((1r,3r)-3-(3-chloro-4-cyanophenoxy)-2,2,4,4-tetramethylcyclobutyl)-2-((3-(4-(3-(2-((S)-4-(4-chlorophenyl)-2,3,9-trimethyl-6H-thieno[3,2-f][1,2,4]triazolo[4,3-a][1,4]diazepin-6-yl)acetamido)propyl)piperazin-1-yl)propyl)(methyl)amino)pyrimidine-5-carboxamide] | < 0.05 |
| Cc1sc2c(c1C)C(c1ccc(Cl)cc1)=N[C@@H](CC(=O)NCCCN1CCN(CCCOC3CCN(c4ncc(C(=O)N[C@H]5C(C)(C)[C@H](Oc6ccc(C#N)c(Cl)c6)C5(C)C)cn4)CC3)CC1)c1nnc(C)n1-2 [Compound I-10] | < 0.05 |
| Cc1sc2c(c1C)C(c1ccc(Cl)cc1)=N[C@H](CC(=O)NCCOCCOCCOCCOC1CCN(c3ncc(C(=O)N[C@H]4C(C)(C)[C@H](Oc5ccc(C#N)c(Cl)c5)C4(C)C)cn3)CC1)c1nnc(C)n1-2 [Compound I-13] | < 0.05 |
| Cc1sc2c(c1C)C(c1ccc(Cl)cc1)=N[C@@H](CC(=O)NCCOCCOCCOCC1CCN(c3ncc(C(=O)N[C@H]4C(C)(C)[C@H](Oc5ccc(C#N)c(Cl)c5)C4(C)C)cn3)CC1)c1nnc(C)n1-2 [Compound I-17] | < 0.05 |
| Cc1sc2c(c1C)C(c1ccc(Cl)cc1)=N[C@@H](CC(=O)NCCOCCOCCOCC1CN(c3ncc(C(=O)N[C@H]4C(C)(C)[C@H](Oc5ccc(C#N)c(Cl)c5)C4(C)C)cn3)C1)c1nnc(C)n1-2 [Compound I-18] | < 0.05 |
| Cc1sc2c(c1C)C(c1ccc(Cl)cc1)=N[C@H](CC(=O)NCCOCCOCCOCCOCCN(C)c1ncc(C(=O)N[C@H]3C(C)(C)[C@H](Oc4ccc(C#N)c(Cl)c4)C3(C)C)cn1)c1nnc(C)n1-2 [Compound I-19] | < 0.05 |
| Cc1sc2c(c1C)C(c1ccc(Cl)cc1)=N[C@@H](CC(=O)NCCCCCCCOC1CCN(c3ncc(C(=O)N[C@H]4C(C)(C)[C@H](Oc5ccc(C#N)c(Cl)c5)C4(C)C)cn3)CC1)c1nnc(C)n1-2 [Compound I-24] | < 0.05 |
| Cc1sc2c(c1C)C(c1ccc(Cl)cc1)=N[C@@H](CC(=O)NCCCCOCCOC1CCN(c3ncc(C(=O)N[C@H]4C(C)(C)[C@H](Oc5ccc(C#N)c(Cl)c5)C4(C)C)cn3)CC1)c1nnc(C)n1-2 [Compound I-28] | < 0.05 |
| Cc1sc2c(c1C)C(c1ccc(Cl)cc1)=N[C@@H](CC(=O)NCCCN1CCN(CC3CCN(c4ncc(C(=O)N[C@H]5C(C)(C)[C@H](Oc6ccc(C#N)c(Cl)c6)C5(C)C)cn4)CC3)CC1)c1nnc(C)n1-2 [Compound I-36, N-((1r,3r)-3-(3-chloro-4-cyanophenoxy)-2,2,4,4-tetramethylcyclobutyl)-2-(4-((4-(3-(2-((S)-4-(4-chlorophenyl)-2,3,9-trimethyl-6H-thieno[3,2-f][1,2,4]triazolo[4,3-a][1,4]diazepin-6-yl)acetamido)propyl)piperazin-1-yl)methyl)piperidin-1-yl)pyrimidine-5-carboxamide] | < 0.05 |
| Cc1sc2c(c1C)C(c1ccc(OCCOCCOC3CCN(c4ncc(C(=O)N[C@H]5C(C)(C)[C@H](Oc6ccc(C#N)c(Cl)c6)C5(C)C)cn4)CC3)cc1)=N[C@@H](CC(=O)O)c1nnc(C)n1-2 [Compound I-39] | < 0.05 |
| Cc1sc2c(c1C)C(c1ccc(OCCOCCOCCOC3CCN(c4ncc(C(=O)N[C@H]5C(C)(C)[C@H](Oc6ccc(C#N)c(Cl)c6)C5(C)C)cn4)CC3)cc1)=N[C@@H](CC(=O)O)c1nnc(C)n1-2 [Compound I-40] | < 0.05 |
| Cc1sc2c(c1C)C(c1cccc(OCCOCCOC3CCN(c4ncc(C(=O)N[C@H]5C(C)(C)[C@H](Oc6ccc(C#N)c(Cl)c6)C5(C)C)cn4)CC3)c1)=N[C@@H](CC(=O)O)c1nnc(C)n1-2 [Compound I-42] | < 0.05 |
| Cc1sc2c(c1C)C(c1cccc(OCCOCCOCCOC3CCN(c4ncc(C(=O)N[C@H]5C(C)(C)[C@H](Oc6ccc(C#N)c(Cl)c6)C5(C)C)cn4)CC3)c1)=N[C@@H](CC(=O)O)c1nnc(C)n1-2 [Compound I-43] | < 0.05 |
| CCNC(=O)C[C@@H]1N=C(c2ccc(OCCOCCOCCOC3CCN(c4ncc(C(=O)N[C@H]5C(C)(C)[C@H](Oc6ccc(C#N)c(Cl)c6)C5(C)C)cn4)CC3)cc2)c2c(sc(C)c2C)-n2c(C)nnc21 [Compound I-45, N-((1r,3r)-3-(3-chloro-4-cyanophenoxy)-2,2,4,4-tetramethylcyclobutyl)-2-(4-(2-(2-(2-(4-((S)-6-(2-(ethylamino)-2-oxoethyl)-2,3,9-trimethyl-6H-thieno[3,2-f][1,2,4]triazolo[4,3-a][1,4]diazepin-4-yl)phenoxy)ethoxy)ethoxy)ethoxy)piperidin-1-yl)pyrimidine-5-carboxamide] | < 0.05 |
| CCNC(=O)C[C@@H]1N=C(c2cccc(OCCOCCOC3CCN(c4ncc(C(=O)N[C@H]5C(C)(C)[C@H](Oc6ccc(C#N)c(Cl)c6)C5(C)C)cn4)CC3)c2)c2c(sc(C)c2C)-n2c(C)nnc21 [Compound I-47, N-((1r,3r)-3-(3-chloro-4-cyanophenoxy)-2,2,4,4-tetramethylcyclobutyl)-2-(4-(2-(2-(3-((S)-6-(2-(ethylamino)-2-oxoethyl)-2,3,9-trimethyl-6H-thieno[3,2-f][1,2,4]triazolo[4,3-a][1,4]diazepin-4-yl)phenoxy)ethoxy)ethoxy)piperidin-1-yl)pyrimidine-5-carboxamide] | < 0.05 |
| CCNC(=O)C[C@@H]1N=C(c2cccc(OCCOCCOCCOC3CCN(c4ncc(C(=O)N[C@H]5C(C)(C)[C@H](Oc6ccc(C#N)c(Cl)c6)C5(C)C)cn4)CC3)c2)c2c(sc(C)c2C)-n2c(C)nnc21 [Compound I-48, N-((1r,3r)-3-(3-chloro-4-cyanophenoxy)-2,2,4,4-tetramethylcyclobutyl)-2-(4-(2-(2-(2-(3-((S)-6-(2-(ethylamino)-2-oxoethyl)-2,3,9-trimethyl-6H-thieno[3,2-f][1,2,4]triazolo[4,3-a][1,4]diazepin-4-yl)phenoxy)ethoxy)ethoxy)ethoxy)piperidin-1-yl)pyrimidine-5-carboxamide] | < 0.05 |
| CCNC(=O)C[C@@H]1N=C(c2ccc(OCC3CN(c4ncc(C(=O)N[C@H]5C(C)(C)[C@H](Oc6ccc(C#N)c(Cl)c6)C5(C)C)cn4)C3)cc2)c2c(sc(C)c2C)-n2c(C)nnc21 [Compound I-71] | < 0.05 |
| CCNC(=O)C[C@@H]1N=C(c2ccc(OCCCN(C)c3ncc(C(=O)N[C@H]4C(C)(C)[C@H](Oc5ccc(C#N)c(Cl)c5)C4(C)C)cn3)cc2)c2c(sc(C)c2C)-n2c(C)nnc21 [Compound I-81] | < 0.05 |
| CCNC(=O)C[C@@H]1N=C(c2ccc(OCCCCc3ncc(C(=O)N[C@H]4C(C)(C)[C@H](Oc5ccc(C#N)c(Cl)c5)C4(C)C)cn3)cc2)c2c(sc(C)c2C)-n2c(C)nnc21 [Compound I-86] | < 0.05 |
